Results on one molecule are retold here after US20240197687A1, “METHODS OF TREATING NEUROINFLAMMATION AND INHIBITING MONOAMINE OXIDASE-A AND RESTORING/UPREGULATING/INCREASING IL-13 AND AND PGC-1 BY ADMINISTERING ORAL DOSAGE FORM CONTAINING MICRONIZED AND NONMICRONIZED PARTICULATE METAXALONE, ALGINIC ACID AND PROPYLENE GLYCOL ALGINATE” (Primus Pharmaceuticals, Inc., priority 2022, published 2024).

The subject of data set [1] is HMC3 microglial cells.
A further data set deals with T1, MAO-A (Homo sapiens, UniProt P21397).
T1 construct: MAO-A was constitutively expressed in microglia cells; endogenous in cells; host or cells: HMC3 human microglial cells
T1 sequence (P21397 1-527): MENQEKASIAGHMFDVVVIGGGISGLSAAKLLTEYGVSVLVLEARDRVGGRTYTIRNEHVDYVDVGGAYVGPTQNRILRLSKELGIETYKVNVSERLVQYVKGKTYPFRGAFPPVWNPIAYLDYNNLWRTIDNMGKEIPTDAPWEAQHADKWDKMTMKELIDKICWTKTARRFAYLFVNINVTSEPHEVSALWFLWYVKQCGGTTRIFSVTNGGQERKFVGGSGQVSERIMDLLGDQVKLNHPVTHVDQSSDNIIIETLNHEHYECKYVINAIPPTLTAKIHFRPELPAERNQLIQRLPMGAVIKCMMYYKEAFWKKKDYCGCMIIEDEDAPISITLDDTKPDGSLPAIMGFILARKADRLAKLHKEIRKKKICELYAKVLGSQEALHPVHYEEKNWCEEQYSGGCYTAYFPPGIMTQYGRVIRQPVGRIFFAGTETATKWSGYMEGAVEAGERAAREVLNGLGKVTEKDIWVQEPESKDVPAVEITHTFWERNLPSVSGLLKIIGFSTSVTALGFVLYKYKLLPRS
The experiment in a line: MAO-A activity assay (MAO-GLO bioluminescent) in IL-1β-stimulated microglial cells. In kind it is cell-based. The following applies: chemiluminescence assay, metaxalone 10, 20, 40 μg/mL, dose-dependent, p<0.0001 vs. IL-1β. Here is the method:
MAO-A Activity Assay. MAO-A activity was evaluated by a two-step bioluminescent assay methodology, as previously described (See, Lin, Y. C. et al., MAO-A novel decision maker of apoptosis and autophagy in hormone refractory neuroendocrine prostate cancer cells. Sci. Rep. 2017, 7, 46338) using a MAO-GLO™ assay kit from Promega (Madison, WI, USA). The produced amount of signal (light intensity) was measured using a microplate luminometer (Multilabel Counter Victor3™, PerkinElmer Life Sciences). Human recombinant MAO-A enzyme was used as a positive control. The results are given as relative light units after the background was subtracted.

For a further data set, the system named is HMC3 cells. The experiment in a line: Malonaldehyde (MDA) assay, lipid peroxidation in HMC3 cells. In kind it is cell-based, Human. The following applies: IL-1β-stimulated HMC3 cells; metaxalone 10, 20, 40 μg/mL; p<0.0001 vs. IL-1β. The source says:
Malonaldehyde Assay. Metaxalone antioxidant effects were examined in HMC3 cells by measuring malonaldehyde (MDA) levels as a marker of lipid peroxidation, as previously described in detail. (See, Ceravolo, I. Et al., Health Potential of Aloe vera against Oxidative Stress Induced Corneal Damage: An “In Vitro” Study. Antioxidants 2021, 10, 318).

For data set [2], the system named is HMC3 microglial cells. The experiment in a line: ELISA of cytokines in cell culture supernatants of IL-1β-stimulated HMC3 cells. It is filed as cell-based, Human. The following applies: metaxalone 10, 20, 40 μg/mL, dose-dependent, p<0.0001 vs. IL-1β. Here is the method:
Human microglial HMC3 cell line (CRL-3304) was obtained from ATCC (American Type Culture Collection; Manassas, VA, USA). Cells were cultured in Eagle's minimum essential medium (EMEM) with a supplement of 10% fetal bovine serum (FBS) and 1% antibiotic mixture, and were incubated at 37° C. with 5% of CO2. Both medium and supplements were provided by ATCC (Manassas, VA, USA). Cells were seeded in 6-well plates at a density of 4×10^5 cells/well. A stock solution of metaxalone (Sigma Aldrich, Milan, Italy) was prepared by dissolving metaxalone in DMSO. Sixteen hours after plating (time 0), metaxalone was added at the doses of 10, 20, and 40 μg/mL 1 h following IL-1β stimulation (5 ng/mL; Sigma Aldrich, Milan, Italy). After 6 h cells were harvested for mRNA evaluation. In a separate set of plates, cells were incubated for 24 h before MTT assay to evaluate cell viability. The dose-response curve for IL-1β stimulation can be found at Supplemental FIG. S1. Measurements of Cytokines by Enzyme-Linked Immunosorbent Assay (ELISA). Tumor necrosis factor-alpha (TNF-α), interleukin-6 (IL-6) and interleukin-13 (IL-13) were measured in the cell culture supernatants. The products under investigation were measured using enzyme-linked immunosorbent assay (ELISA) kits (Abcam, Cambridge, UK), in agreement with the instructions reported by the manufacturer. All the samples were evaluated in duplicate and the obtained results were interpolated with the pertinent standard curves. To evaluate the sample, the means of the duplicated sample were used and expressed in pg/mL.

For `Cc1cc(C)cc(OCC2CNC(=O)O2)c1` (stereo not drawn) [metaxalone, 5-[(3,5-dimethylphenoxy)methyl]-2-oxazolidinone], the “cell viability (MTT)” value in the data set on HMC3 microglial cells [1] is on record as “did not produce any toxic effect”. Moreover, the MAO-A activity result at MAO-A is “suppressed”. For the same molecule, the MDA levels result in the data set on HMC3 cells is reported as “significant reduction”. Further, the IL-6 protein levels result in the data set with HMC3 microglial cells [2] (supernatant of IL-1β-stimulated HMC3 cells (IL-6 increased by IL-1β)) was “significantly reverted”. Further, in the data set on HMC3 microglial cells [2] (supernatant of IL-1β-stimulated HMC3 cells (IL-13 decreased by IL-1β)), the IL-13 protein levels result is listed as “significantly reverted”. Moreover, the TNF-α protein levels result in the data set on HMC3 microglial cells [2] (supernatant of IL-1β-stimulated HMC3 cells (TNF-α increased by IL-1β)) is listed as “significantly reverted”.
